# Assay results taken from patent US11344510B2, “Arylcyclohexylamine derivatives and their use in the treatment of psychiatric disorders” (Gilgamesh Pharmaceuticals, Inc., priority 2019, dated 2022).
# Entries after “also recorded” stand apart in the source; their conditions may differ. Structures can show the parent of a compound that is named as a salt.
# What was measured:
# [1] = HLM stability (Low Activity, Alternative Method); type: in vitro ADME; details: both sexes, human, liver microsomes, pH 7.4, Condition 1 column, values marked *: Low Activity, 0.50 mg protein/mL
# Outline: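 Pooled male and female human liver microsomes (0.50 mg/mL) in 100 mM PBS pH 7.4 with 1 mM MgCl2 and 1 mM NADPH, compound 1 μM (1.0% solvent), 37° C with shaking, six time points over 60 min. Parent remaining measured by LC-MS/MS; kel, t1/2 and Clint from linear regression of ln(AUC) versus time.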
# [2] = test system: mice (conditioned place preference model of abuse liability); test: Conditioned place preference in mice; type: in vivo, C57BL/6 mice; details: s.c., 3 drug conditioning trials, relative to saline vehicle
# Experimental: Animals. Male C57BL/6 mice, 5-8 weeks of age, (body weight 25-30 g; Envigo, Indianapolis, Ind., USA) were housed 5 per polycarbonate tub with soft bedding in a temperature- and humidity-controlled vivarium. Mice were maintained under a 12-h light/dark cycle with lights on at 06:00. Food and water were available ad libitum Animals acclimated to the vivarium 1 week prior to experimental manipulations.
# Drugs and Drug Administration. Test compounds and saline vehicle were administered subcutaneously (s.c.), with doses calculated based on the HCl salt, while the positive control oxycodone was administered intraperitoneally (i.p.), with the dose calculated based on the HCl salt. Normal saline was used as the vehicle. […]
# Conditioned Place Preference. Reward and/or aversion was assessed in conditioned place preference chambers (Model MED-CPP-3013; Med Associates, St. Albans, Vt.). […]
# Group size was n=10 per treatment. […] Final drug preference is assessed in a 15-minute post-conditioning trial and is calculated by subtracting the time in the drug-paired compartment at baseline from the time in the drug-paired compartment post-conditioning, with positive values reflecting reward and negative values reflecting aversion.
# For all trials, time spent in chambers as well as movement was quantified by infrared photobeam detectors and calculated by Med-PC IV software. […]
# [3] = HLM stability (Low Activity); type: in vitro ADME; details: both sexes, human, liver microsomes, pH 7.4, Condition 1 (Low Activity), 0.42 mg protein/mL
# Experimental: For some of the compounds, stability was tested under two microsomal incubation conditions, one with normal enzymatic activity (low activity) and one with higher enzymatic loading, longer incubation time, and lower compound concentration (high activity) intended to increase metabolic lability.
# HLM Stability (Low Activity). Pooled HLM from adult male and female donors (XenoTech H0630) were used. Microsomal incubations were carried out in 96-well plates in 5 aliquots of 40 μL, each (one for each time point). Liver microsomal incubation medium consisted of PBS (100 mM, pH 7.4), MgCl2 (3.3 mM), NADPH (3 mM), glucose-6-phosphate (5.3 mM), and glucose-6-phosphate dehydrogenase (0.67 units/mL), with 0.42 mg of liver microsomal protein per mL. Control incubations were performed by replacing the NADPH-cofactor system with PBS. Test compounds (2 μM, final solvent concentration 1.6%) were incubated with microsomes at 37° C., shaking at 100 rpm. Incubations were performed in duplicate. Five time points over 40 minutes were analyzed. The reactions were stopped by adding 12 volumes of 90% acetonitrile-water to incubation aliquots, followed by protein sedimentation by centrifugation at 5500 rpm for 3 minutes. Supernatants were analyzed for parent compound remaining using a fit-for-purpose liquid chromatography-tandem mass spectrometry (LC-MS/MS) method, with authentic samples of each analyte used for identity confirmation.
# Data Analysis. The elimination constant (kel), half-life (t1/2) and intrinsic clearance (Clint) were determined in a plot of […] versus time, using linear regression analysis.
# mice (forced swim test) = test: Forced swim test in mice, 30-minute pre-treatment; type: in vivo, Swiss Webster mice; details: s.c., 30 minutes before test, relative to vehicle
# Experimental: Animals. Male Swiss Webster mice, aged 4-5 weeks (body weight 25-30 g, Envigo) were used in the experiments Animals were housed in groups of 4-5 under controlled temperatures and 12-hour light/dark cycles, with ad libitum food (Teklad 7001 rodent diet) and water. These studies were carried out in strict accordance with the recommendations in the Guide for the Care and Use of Laboratory Animals of the National Institutes of Health. All efforts were made to minimize suffering.
# Drugs and Drug Administration. Imipramine hydrochloride was administered intraperitoneally (i.p.) at a dose of 30 mg/kg. Other compounds were tested as the racemates (indicated by “rac” nomenclature) and were administered subcutaneously (s.c.) as the hydrochloride salts. Normal saline was used as the vehicle and all compounds were administered at a volume of 10 mL/kg, 30 minutes before behavioral testing.
# Forced Swim Test (FST). Group size was n=10 per treatment Animals were acclimated to the testing room 30 minutes prior to behavioral testing. Mice were placed individually in a cylinder of water measuring 5 inches wide by 10 inches tall and maintained at 24-25° C. The activity of each mouse was recorded for 6 minutes using Noldus Ethovision tracking software, with periods of inactivity being automatically quantified.
# Statistical Analysis. The data points shown are the mean±standard error of the mean (SEM). Analysis was performed using GraphPad Prism 6. Indicated statistical comparisons represent the results of unpaired, two-tailed t tests relative to vehicle (not corrected for multiple comparisons).
Compound,half-life at 1 μM [1] [h],microsomal CLint at 1 μM [1] [µL/min/mg],conditioned place preference (abuse liability) [2],half-life at 2 μM [3] [h],microsomal CLint at 2 μM [3] [µL/min/mg],further results
"Cc1ccccc1[C@@]1(N)CCCCC1=O [Compound 114S, (S)-2-amino-2-(o-tolyl)cyclohexan-1-one]",> 2.42,< 9.6,–,–,–,–
"CN[C@@]1(c2ccccc2)CCCCC1=O [Compound 14R, (R)-2-(methylamino)-2-phenylcyclohexan-1-one]",–,–,neither preference nor aversion,–,–,–
"Cc1ccccc1[C@]1(N)CCCCC1=O [Compound 114R, (R)-2-amino-2-(o-tolyl)cyclohexan-1-one]",> 2.42,< 9.6,–,–,–,–
"CNC1(c2ccccc2)CCCCC1=O (racemic) [Compound 14rac, 2-(methylamino)-2-phenylcyclohexan-1-one hydrochloride]",–,–,–,5.47,5,immobility time in FST (mice (forced swim test); hydrochloride): reduced time immobile; also recorded: induced antidepressant-like effects
"CN[C@]1(c2ccccc2)CCCCC1=O [Compound 14S, (S)-2-(methylamino)-2-phenylcyclohexan-1-one]",–,–,dose-dependent and significant preference,–,–,–
"CNC1(c2ccccc2Cl)CCCCC1=O (racemic) [rac-ketamine, racemic ketamine, reference compound]",–,–,–,1.31,21,immobility time in FST (mice (forced swim test)): did not have effects
